From patent publication US20220324835A1 (Nurix Therapeutics, Inc., priority 2018, published 2022)

Legend:
T-cell [1] = experiment: IL-2 secretion from T-cells stimulated with anti-CD3 antibody alone (Biological Example 2); type: cell-based, human; conditions: Homo sapiens, T-cell; 1 μM Cbl-b inhibitor; fold change over baseline (anti-CD3/anti-CD28 stimulated T-cells without inhibitor); read-out: IL-2 secretion Anti-CD3 stimulation
T-cell [2] = experiment: CD25 cell surface staining on T-cells co-stimulated with anti-CD3 and anti-CD28 antibody (Biological Example 2); type: cell-based, human; conditions: Homo sapiens, T-cell, fold change over baseline (anti-CD3/anti-CD28 stimulated T-cells without inhibitor), read-out: CD25 staining Anti-CD3/Anti-CD28 stimulation; for fold induction at 0.3 µM: 0.3 μM Cbl-b inhibitor; for fold induction at 1 µM: 1 μM Cbl-b inhibitor
Summary of the method: (§1)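 No assay protocol given; T-cells stimulated with anti-CD3 alone or anti-CD3 plus anti-CD28, with or without Cbl-b inhibitor. Activation read as IL-2 secretion or CD25 surface staining, expressed as fold over baseline from uninhibited cells […].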

T-cell [3] = experiment: IL-2 secretion from T-cells co-stimulated with anti-CD3 and anti-CD28 antibody (Biological Example 2); type: cell-based, human; conditions: Homo sapiens, T-cell, fold change over baseline (anti-CD3/anti-CD28 stimulated T-cells without inhibitor), read-out: IL-2 secretion Anti-CD3/Anti-CD28 stimulation; for fold induction at 0.3 µM: 0.3 μM Cbl-b inhibitor; for fold induction at 1 µM: 1 μM Cbl-b inhibitor
Summary of the method: as §1

Cbl-b [4] = biological target: T1, Cbl-b (Homo sapiens, UniProt Q13191); experiment: Cbl-b inhibition assay (Cbl-b activity assay, FRET, Biological Example 1; 100 mM NaCl, 60 nM Src kinase); type: biochemical; conditions: upper bound stated in text lists; read-out: IC50 values in the Cbl-b inhibition assay of Biological Example 1
T1 sequence (Q13191 36-427): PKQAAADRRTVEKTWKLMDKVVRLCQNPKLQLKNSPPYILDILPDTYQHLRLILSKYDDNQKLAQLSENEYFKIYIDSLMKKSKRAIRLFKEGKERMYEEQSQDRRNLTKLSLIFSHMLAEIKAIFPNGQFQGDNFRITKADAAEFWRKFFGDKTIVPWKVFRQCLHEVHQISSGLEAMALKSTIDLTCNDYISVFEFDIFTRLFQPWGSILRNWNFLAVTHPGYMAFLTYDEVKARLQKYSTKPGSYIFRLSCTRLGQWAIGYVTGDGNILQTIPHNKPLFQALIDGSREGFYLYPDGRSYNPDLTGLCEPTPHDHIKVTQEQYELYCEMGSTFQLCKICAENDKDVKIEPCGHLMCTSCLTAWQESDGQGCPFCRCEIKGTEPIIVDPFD
Summary of the method: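 Here, the E2 UbcH5B, irreversibly linked to Bodipy-fluorescein ubiquitin, binds Cbl-b once Src kinase phosphorylates it; Cbl-b carries an N-terminal biotinylated Avi-tag captured by streptavidin-terbium. An absent FRET signal indicates inhibition.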

T-cell [5] = experiment: CD25 cell surface staining on T-cells stimulated with anti-CD3 antibody alone (Biological Example 2); type: cell-based, human; conditions: Homo sapiens, T-cell; 1 μM Cbl-b inhibitor; fold change over baseline (anti-CD3/anti-CD28 stimulated T-cells without inhibitor); read-out: CD25 staining Anti-CD3 stimulation
Cbl-b [6] = biological target: T1, Cbl-b; experiment: Cbl-b activity assay (Cbl-b inhibition assay), TR-FRET of Cbl-b interaction with UbcH5B-Ub; type: biochemical; conditions: assay buffer with 100 mM NaCl, 60 nM Src kinase; read-out: Cbl-b activity IC50
Summary of the method: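 TR-FRET readout of Cbl-b binding to Bodipy-fluorescein N-terminally labeled Ub conjugated to UbcH5B C85K, measured with compound present. After compound incubation, 60 nM Src kinase with 1 mM ATP and 5 mM MgCl2 (final) was added for 1.5 h, then a further 1 h incubation; asterisked values used 50 mM NaCl buffer and 30 nM Src.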

Compound: Cn1cnnc1CC1(c2cccc(N3Cc4c(cc(C5=CN6CCC5CC6)cc4C(F)(F)F)C3=O)c2)COC1 [Example 559, 6-(l-azabicyclo[2.2.2]oct-2-en-3-yl)-2-(3-(3-((4-methyl-4H-1,2,4-triazol-3-yl)methyl)oxetan-3-yl)phenyl)-4-(trifluoromethyl)isoindolin-1-one]
- fold induction at 1 µM (T-cell [1]): < 0.05
- fold induction at 0.3 µM (T-cell [2]): 1.01 to 1.3
- fold induction at 1 µM (T-cell [2]): 1.01 to 1.3
- fold induction at 0.3 µM (T-cell [3]): 1.01 to 2.5
- fold induction at 1 µM (T-cell [3]): 2.51 to 5
- IC50 (Cbl-b [4]): ≤ 300 nM
- fold induction at 1 µM (T-cell [5]): 0.601 to 0.8
- IC50 (Cbl-b [6]): 100 to 300 nM

Compound: Cn1cnnc1CC1(c2cccc(N3Cc4c(cc(C5CN6CCC5CC6)cc4C(F)(F)F)C3=O)c2)COC1 (stereo not drawn) [Example 560, 2-(3-(3-((4-methyl-4H-1,2,4-triazol-3-yl)methyl)oxetan-3-yl)phenyl)-6-(quinuclidin-3-yl)-4-(trifluoromethyl)isoindolin-1-one]
- fold induction at 1 µM (T-cell [1]): < 0.05
- fold induction at 0.3 µM (T-cell [2]): 1.01 to 1.3
- fold induction at 1 µM (T-cell [2]): 1.01 to 1.3
- fold induction at 0.3 µM (T-cell [3]): 2.51 to 5
- fold induction at 1 µM (T-cell [3]): 5 to 7.5
- IC50 (Cbl-b [4]): ≤ 100 nM
- fold induction at 1 µM (T-cell [5]): 0.601 to 0.8
- IC50 (Cbl-b [6]): < 100 nM

Compound: Cn1cnnc1CC1(c2cccc(N3Cc4c(cc(N5CCOC5=O)cc4C(F)(F)F)C3=O)c2)COC1 [Example 561, 3-(2-(3-(3-((4-Methyl-4H-1,2,4-triazol-3-yl)methyl)oxetan-3-yl)phenyl)-3-oxo-7-(trifluoromethyl)isoindolin-5-yl)oxazolidin-2-one]
- fold induction at 1 µM (T-cell [1]): < 0.05
- fold induction at 0.3 µM (T-cell [2]): 1.01 to 1.3
- fold induction at 1 µM (T-cell [2]): 1.01 to 1.3
- fold induction at 0.3 µM (T-cell [3]): 1.01 to 2.5
- fold induction at 1 µM (T-cell [3]): 2.51 to 5
- IC50 (Cbl-b [4]): ≤ 100 nM
- fold induction at 1 µM (T-cell [5]): 0.601 to 0.8
- IC50 (Cbl-b [6]): < 100 nM

Compound: CN1C[C@H]2C[C@@H]1CN2c1cc2c(c(C(F)(F)F)c1)CN(c1cccc([C@@](C)(F)C(F)(F)c3nncn3C)c1)C2=O [Example 562, 6-((1R,4R)-5-Methyl-2,5-diazabicyclo[2.2.1]heptan-2-yl)-2-(3-((R)-1,1,2-trifluoro-1-(4-methyl-4H-1,2,4-triazol-3-yl)propan-2-yl)phenyl)-4-(trifluoromethyl)-isoindolin-1-one]
- fold induction at 1 µM (T-cell [1]): > 0.201
- fold induction at 0.3 µM (T-cell [2]): 1.51 to 1.75
- fold induction at 1 µM (T-cell [2]): 1.51 to 1.75
- fold induction at 0.3 µM (T-cell [3]): 5 to 7.5
- fold induction at 1 µM (T-cell [3]): > 7.5
- IC50 (Cbl-b [4]): ≤ 100 nM
- fold induction at 1 µM (T-cell [5]): > 1
- IC50 (Cbl-b [6]): < 100 nM

Compound: CN1C[C@@H]2C[C@H]1CN2c1cc2c(c(C(F)(F)F)c1)CN(c1cccc([C@@](C)(F)C(F)(F)c3nncn3C)c1)C2=O [Example 563, 6-((1S,4S)-5-Methyl-2,5-diazabicyclo[2.2.1]heptan-2-yl)-2-(3-((R)-1,1,2-trifluoro-1-(4-methyl-4H-1,2,4-triazol-3-yl)propan-2-yl)phenyl)-4-(trifluoromethyl)-isoindolin-1-one]
- fold induction at 1 µM (T-cell [1]): 0.051 to 0.1
- fold induction at 0.3 µM (T-cell [2]): 1.01 to 1.3
- fold induction at 1 µM (T-cell [2]): 1.31 to 1.5
- fold induction at 0.3 µM (T-cell [3]): 1.01 to 2.5
- fold induction at 1 µM (T-cell [3]): 2.51 to 5
- IC50 (Cbl-b [4]): ≤ 100 nM
- fold induction at 1 µM (T-cell [5]): 0.801 to 1
- IC50 (Cbl-b [6]): < 100 nM

Compound: CN1C2CCC1CN(c1cc3c(c(C(F)(F)F)c1)CN(c1cccc([C@@](C)(F)C(F)(F)c4nncn4C)c1)C3=O)C2 [Example 564, 6-(8-Methyl-3,8-diazabicyclo[3.2.1]octan-3-yl)-2-(3-((R)-1,1,2-trifluoro-1-(4-methyl-4H-1,2,4-triazol-3-yl)propan-2-yl)phenyl)-4-(trifluoromethyl)isoindolin-1-one]
- fold induction at 1 µM (T-cell [1]): 0.101 to 0.15
- fold induction at 0.3 µM (T-cell [2]): 1.01 to 1.3
- fold induction at 1 µM (T-cell [2]): 1.31 to 1.5
- fold induction at 0.3 µM (T-cell [3]): 1.01 to 2.5
- fold induction at 1 µM (T-cell [3]): 2.51 to 5
- IC50 (Cbl-b [4]): ≤ 100 nM
- fold induction at 1 µM (T-cell [5]): 0.801 to 1
- IC50 (Cbl-b [6]): < 100 nM

Compound: CN1CC2CCC1CN2c1cc2c(c(C(F)(F)F)c1)CN(c1cccc([C@@](C)(F)C(F)(F)c3nncn3C)c1)C2=O (stereo partly drawn) [Example 565, 6-(5-Methyl-2,5-diazabicyclo[2.2.2]octan-2-yl)-2-(3-((R)-1,1,2-trifluoro-1-(4-methyl-4H-1,2,4-triazol-3-yl)propan-2-yl)phenyl)-4-(trifluoromethyl)isoindolin-1-one]
- fold induction at 1 µM (T-cell [1]): 0.101 to 0.15
- fold induction at 0.3 µM (T-cell [2]): 1.31 to 1.5
- fold induction at 1 µM (T-cell [2]): 1.31 to 1.5
- fold induction at 0.3 µM (T-cell [3]): 1.01 to 2.5
- fold induction at 1 µM (T-cell [3]): 2.51 to 5
- IC50 (Cbl-b [4]): ≤ 100 nM
- fold induction at 1 µM (T-cell [5]): > 1
- IC50 (Cbl-b [6]): < 100 nM

Compound: CN1CC2CC(C1)N2c1cc2c(c(C(F)(F)F)c1)CN(c1cccc([C@@](C)(F)C(F)(F)c3nncn3C)c1)C2=O [Example 566, 6-(3-Methyl-3,6-diazabicyclo[3.1.1]heptan-6-yl)-2-(3-((R)-1,1,2-trifluoro-1-(4-methyl-4H-1,2,4-triazol-3-yl)propan-2-yl)phenyl)-4-(trifluoromethyl)isoindolin-1-one]
- fold induction at 1 µM (T-cell [1]): 0.101 to 0.15
- fold induction at 0.3 µM (T-cell [2]): 1.31 to 1.5
- fold induction at 1 µM (T-cell [2]): 1.51 to 1.75
- fold induction at 0.3 µM (T-cell [3]): 5 to 7.5
- fold induction at 1 µM (T-cell [3]): > 7.5
- IC50 (Cbl-b [4]): ≤ 100 nM
- fold induction at 1 µM (T-cell [5]): > 1
- IC50 (Cbl-b [6]): < 100 nM

Compound: Cn1cnnc1CC1(c2cccc(N3Cc4c(cc(N5CCOCC5)cc4C(F)(F)F)C3=O)c2)COC1 [Example 567, 2-(3-(3-((4-Methyl-4H-1,2,4-triazol-3-yl)methyl)oxetan-3-yl)phenyl)-6-morpholino-4-(trifluoromethyl)isoindolin-1-one]
- fold induction at 1 µM (T-cell [1]): 0.051 to 0.1
- fold induction at 0.3 µM (T-cell [2]): 1.01 to 1.3
- fold induction at 1 µM (T-cell [2]): 1.01 to 1.3
- fold induction at 0.3 µM (T-cell [3]): 1.01 to 2.5
- fold induction at 1 µM (T-cell [3]): 2.51 to 5
- IC50 (Cbl-b [4]): ≤ 100 nM
- fold induction at 1 µM (T-cell [5]): 0.801 to 1
- IC50 (Cbl-b [6]): < 100 nM

Compound: Cn1cnnc1CC1(c2cccc(N3Cc4c(cc(C5CC5)nc4C4CC4)C3=O)c2)COC1 [Example 568, 4,6-Dicyclopropyl-2-(3-(3-((4-methyl-4H-1,2,4-triazol-3-yl)methyl)oxetan-3-yl)phenyl)-2,3-dihydro-1H-pyrrolo[3,4-c]pyridin-1-one]
- fold induction at 1 µM (T-cell [1]): 0.101 to 0.15
- fold induction at 0.3 µM (T-cell [2]): 1.01 to 1.3
- fold induction at 1 µM (T-cell [2]): 1.01 to 1.3
- fold induction at 0.3 µM (T-cell [3]): 1.01 to 2.5
- fold induction at 1 µM (T-cell [3]): 1.01 to 2.5
- IC50 (Cbl-b [4]): ≤ 100 nM
- fold induction at 1 µM (T-cell [5]): 0.801 to 1
- IC50 (Cbl-b [6]): < 100 nM

Compound: CN1C[C@H]2C[C@@H]1CN2c1cc2c(c(C(F)(F)F)c1)CN(c1cccc(C3(Cc4nncn4C)COC3)c1)C2=O [Example 569, 2-(3-(3-((4-Methyl-4H-1,2,4-triazol-3-yl)methyl)oxetan-3-yl)phenyl)-6-((1R,4R)-5-methyl-2,5-diazabicyclo[2.2.1]heptan-2-yl)-4-(trifluoromethyl)isoindolin-1-one]
- fold induction at 1 µM (T-cell [1]): > 0.201
- fold induction at 0.3 µM (T-cell [2]): 1.31 to 1.5
- fold induction at 1 µM (T-cell [2]): 1.31 to 1.5
- fold induction at 0.3 µM (T-cell [3]): > 7.5
- fold induction at 1 µM (T-cell [3]): > 7.5
- IC50 (Cbl-b [4]): ≤ 100 nM
- fold induction at 1 µM (T-cell [5]): > 1
- IC50 (Cbl-b [6]): < 100 nM

Compound: C[C@@H](c1cc2c(c(C(F)(F)F)c1)CN(c1cccc(C3(C(F)(F)c4nncn4C)COC3)c1)C2=O)N1CC[C@H](F)C1 [Example 570, 2-(3-(3-(Difluoro(4-methyl-4H-1,2,4-triazol-3-yl)methyl)oxetan-3-yl)phenyl)-6-((S)-1-((S)-3-fluoropyrrolidin-1-yl)ethyl)-4-(trifluoromethyl)isoindolin-1-one]
- fold induction at 1 µM (T-cell [1]): > 0.201
- fold induction at 0.3 µM (T-cell [2]): 1.31 to 1.5
- fold induction at 1 µM (T-cell [2]): 1.51 to 1.75
- fold induction at 0.3 µM (T-cell [3]): 2.51 to 5
- fold induction at 1 µM (T-cell [3]): > 7.5
- IC50 (Cbl-b [4]): ≤ 100 nM
- fold induction at 1 µM (T-cell [5]): > 1
- IC50 (Cbl-b [6]): < 100 nM
